pKi: −log10 of the molar value.
Key:
[1] = biological target: T1, human serotonin 5-HT2A receptor (Homo sapiens, UniProt P28223); assay: Radioligand binding ([3H]-ketanserin) to membranes of HEK-293 EBNA cells expressing human 5-HT2A receptor; conditions: 1.1 nM [3H]-ketanserin, HEK-293 EBNA membranes, 1 h at RT
T1 construct: expressed in transfected cells; host or cells: HEK-293 EBNA cells, transient transfection; membrane preparation
Experimental: (§1) The ability of the compounds to bind to the 5-HT2A, D3 and D2 receptors was determined using radioligand binding to cloned receptors selectively expressed in HEK-293 EBNA cells.
(§2) Membrane Preparation for Human D2, Human D3 and Human 5-HT2A Receptors
(§3) HEK-293 EBNA cells were transiently transfected with expression plasmids encoding for the human D2 or D3 dopamine- or for the human 5-HT2A serotonin receptor, respectively. The cells were harvested 48 h post-transfection, washed three times with cold PBS and stored at −80° C. prior to use. The pellet was suspended in cold 50 mM Tris-HCl buffer containing 10 mM EDTA (pH 7.4) and homogenized with a Polytron (Kinematica AG, Basel, Switzerland) for 20-30 sec at 12.000 rpm. After centrifugation at 48.000×g for 30 min at 4° C., the pellet was resuspended in cold 10 mM Tris-HCl buffer containing 0.1 mM EDTA (pH 7.4), homogenized, and centrifuged as above. This pellet was further resuspended in a smaller volume of ice cold 10 mM Tris-HCl buffer containing 0.1 mM EDTA (pH 7.4) and homogenized with a Polytron for 20-30 sec at 12.000 rpm. The protein content of this homogenate was determined with the Bio-Rad (Bradford) Protein Assay (Biorad Laboratories GmbH, München, Germany) according to the instructions of the manufacturer using gamma globulin as the standard. This homogenate was stored at −80° C. in aliquots and thawed immediately prior to use.
(§4) Radioligand Binding Assay Conditions
(§5) Aliquots of membrane preparations were thawed at RT, resupended in assay buffer (D2, D3: 50 mM Tris-HCl, 120 mM NaCl, 5 mM MgCl2, 1 mM EDTA, 5 mM KCl, 1.5 mM CaCl2, pH=7.4; 5-HT2A: 50 mM Tris-HCl, 10 mM MgCl2, 1 mM EGTA, pH=7.4), homogenized with a Polytron for 20-30 sec at 12.000 rpm and adjusted to a final concentration of approximately 7.5 μg protein/well (D2, D3) and 15 μg protein/well (5-HT2A), respectively.
(§6) The binding affinity (Ki) of the compounds was determined using radioligand binding. Membranes were incubated in a total volume of 200 μl with a fixed concentration of radioligand (final concentration approximately 0.7 nM [^3H]-spiperone for D2, 0.5 nM [^3H]-spiperone for D3, and 1.1 nM [^3H]-ketanserin for 5-HT2A) and ten concentrations of test compound in ranging between 10 μM-0.1 nM for 1 h at RT. At the end of the incubation, the reaction mixtures were filtered on to unifilter 96-well white microplates with bonded GF/C filters (Packard BioScience, Zurich, Switzerland; preincubated for 1 h in 0.1% polyethylenimine (PEI) in assay buffer) with a Filtermate 196 harvester (Packard BioScience) and washed 3 times with cold assay buffer. The nonspecific binding was determined with equally composed reaction mixtures in the presence of 10 μM unlabelled spiperone. Per well 45 μl of Microscint 40 (Perkin Elmer, Schwerzenbach, Switzerland) was added, plates for sealed, shaken for 20 min and counted for 3 min on a Topcount Microplate Scintillation Counter (Canberra Packard SA, Zurich, Switzerland) with quenching correction.
(§7) The CPM value for each duplicate of a concentration of competing compound was averaged (y1), then the % specific binding was calculated according to the equation (((y1−non-specific)/(total binding-non-specific))×100). Graphs were plotted with the % specific binding using XLfit, a curve fitting program that iteratively plots the data using Levenburg Marquardt algorithm. The single site competition analysis equation used was y=A+((B−A)/(1+((x/C)^D))), where y is the % specific binding, A is the minimum y, B is the maximum y, C is the IC50, x is the log10 of the concentration of the competing compound and D is the slope of the curve (the Hill Coefficient). From these curves the IC50 (inhibition concentration at which 50% specific binding of the radioligand was displaced) and Hill coefficient were determined. […]

[2] = biological target: T2, human dopamine D3 receptor (Homo sapiens, UniProt P35462); assay: Radioligand binding ([3H]-spiperone) to membranes of HEK-293 EBNA cells expressing human D3 receptor; conditions: human D3, 0.5 nM [3H]-spiperone, HEK-293 EBNA membranes, 1 h at RT
T2 construct: expressed in transfected cells; host or cells: HEK-293 EBNA cells, transient transfection; membrane preparation
Experimental: as §1, §2, §3, §4, §5, §6, §7

[3] = biological target: T3, human dopamine D2 receptor (Homo sapiens, UniProt P14416); assay: Radioligand binding ([3H]-spiperone) to membranes of HEK-293 EBNA cells expressing human D2 receptor; conditions: human D2, 0.7 nM [3H]-spiperone, HEK-293 EBNA membranes, 1 h at RT
T3 construct: expressed in transfected cells; host or cells: HEK-293 EBNA cells, transient transfection; membrane preparation
Experimental: as §1, §2, §3, §4, §5, §6, §7

T2 sequence (P35462 whole entry): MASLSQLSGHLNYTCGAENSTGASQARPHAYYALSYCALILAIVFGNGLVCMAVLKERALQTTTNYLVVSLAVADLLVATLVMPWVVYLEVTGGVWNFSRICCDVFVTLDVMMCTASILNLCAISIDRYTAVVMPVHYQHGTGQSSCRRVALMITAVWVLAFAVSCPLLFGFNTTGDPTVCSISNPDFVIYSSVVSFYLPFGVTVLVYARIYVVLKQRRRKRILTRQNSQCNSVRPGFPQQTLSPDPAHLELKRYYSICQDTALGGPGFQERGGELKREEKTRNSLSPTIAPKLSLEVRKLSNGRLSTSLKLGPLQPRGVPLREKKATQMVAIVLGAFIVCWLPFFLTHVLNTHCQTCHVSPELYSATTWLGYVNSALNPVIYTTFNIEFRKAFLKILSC
T3 sequence (P14416 whole entry): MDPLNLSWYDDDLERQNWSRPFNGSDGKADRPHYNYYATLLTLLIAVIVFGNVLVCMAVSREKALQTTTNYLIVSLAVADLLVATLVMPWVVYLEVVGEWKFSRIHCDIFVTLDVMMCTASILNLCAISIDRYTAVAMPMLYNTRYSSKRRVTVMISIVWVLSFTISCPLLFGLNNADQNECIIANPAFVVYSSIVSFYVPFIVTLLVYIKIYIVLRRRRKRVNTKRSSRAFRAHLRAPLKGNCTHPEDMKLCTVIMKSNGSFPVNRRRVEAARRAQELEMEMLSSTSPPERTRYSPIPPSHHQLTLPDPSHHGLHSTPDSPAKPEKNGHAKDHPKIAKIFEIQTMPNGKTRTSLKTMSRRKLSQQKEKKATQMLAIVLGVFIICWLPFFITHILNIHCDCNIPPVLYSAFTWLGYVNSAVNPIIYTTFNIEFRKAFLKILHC
T1 sequence (P28223 whole entry): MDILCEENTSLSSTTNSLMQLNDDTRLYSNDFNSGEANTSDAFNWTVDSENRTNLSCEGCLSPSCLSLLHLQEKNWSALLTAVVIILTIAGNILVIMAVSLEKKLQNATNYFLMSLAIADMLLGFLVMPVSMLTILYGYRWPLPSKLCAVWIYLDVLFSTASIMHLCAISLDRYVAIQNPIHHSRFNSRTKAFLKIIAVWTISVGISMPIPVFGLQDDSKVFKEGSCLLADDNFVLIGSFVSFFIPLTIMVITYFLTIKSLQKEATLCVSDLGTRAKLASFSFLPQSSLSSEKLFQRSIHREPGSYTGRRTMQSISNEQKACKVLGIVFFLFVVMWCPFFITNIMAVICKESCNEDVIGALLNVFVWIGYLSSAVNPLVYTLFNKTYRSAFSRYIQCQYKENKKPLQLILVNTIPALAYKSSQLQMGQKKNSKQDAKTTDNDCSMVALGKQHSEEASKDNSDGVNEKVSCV

Row | SMILES | pKi [1] | pKi [2] | pKi [3]
1 | O=C(CC1CCCCO1)N[C@H]1CC[C@H](CCN2CCN(c3noc4cc(Cl)ccc34)CC2)CC1 (stereo partly drawn) [Example 35, N-trans-(4-{2-[4-(6-Chloro-benzo[d]isoxazol-3-yl)-piperazin-1-yl]-ethyl}-cyclohexyl)-2-(tetrahydro-pyran-2-yl)-acetamide] | 8.32 | 7.76 | 6.05
2 | COC(C)CC(=O)N[C@H]1CC[C@H](CCN2CCN(c3noc4cc(Cl)ccc34)CC2)CC1 (stereo partly drawn) [Example 37, N-trans-(4-{2-[4-(6-Chloro-benzo[d]isoxazol-3-yl)-piperazin-1-yl]-ethyl}-cyclohexyl)-3-methoxy-butyramide] | 8.14 | 7.83 | 6.46
3 | O=C(N[C@H]1CC[C@H](CCN2CCN(c3noc4cc(Cl)ccc34)CC2)CC1)C1(O)CC1 [Example 38, 1-Hydroxy-cyclopropanecarboxylic acid N-trans-(4-{2-[4-(6-chloro-benzo[d]isoxazol-3-yl)-piperazin-1-yl]-ethyl}-cyclohexyl)-amide] | 8.09 | 7.90 | 6.50
4 | COC1(C)CCC(CC(=O)N[C@H]2CC[C@H](CCN3CCN(c4noc5cc(Cl)ccc45)CC3)CC2)CC1 (stereo partly drawn) [Example 39, N-trans-(4-{2-[4-(6-Chloro-benzo[d]isoxazol-3-yl)-piperazin-1-yl]-ethyl}-cyclohexyl)-2-(4-methoxy-4-methyl-cyclohexyl)-acetamide] | 8.38 | 7.63 | 5.42
5 | O=C(CC1CCOCC1)N[C@H]1CC[C@H](CCN2CCN(c3noc4cc(Cl)ccc34)CC2)CC1 [Example 40, N-trans-(4-{2-[4-(6-Chloro-benzo[d]isoxazol-3-yl)-piperazin-1-yl]-ethyl}-cyclohexyl)-2-(tetrahydro-pyran-4-yl)-acetamide] | 7.95 | 8.15 | 5.97
6 | CCC(=O)N[C@H]1CC[C@H](CCN2CCN(c3noc4cc(Cl)ccc34)CC2)CC1 [Example 41, N-trans-(4-{2-[4-(6-Chloro-benzo[d]isoxazol-3-yl)-piperazin-1-yl]-ethyl}-cyclohexyl)-propionamide] | 7.96 | 8.06 | 6.17
7 | O=C(CO)N[C@H]1CC[C@H](CCN2CCN(c3noc4cc(Cl)ccc34)CC2)CC1 [Example 42, N-trans-(4-{2-[4-(6-Chloro-benzo[d]isoxazol-3-yl)-piperazin-1-yl]-ethyl}-cyclohexyl)-2-hydroxy-acetamide] | 8.16 | 7.96 | 6.09
8 | O=C(C[C@H]1CC[C@H](O)CC1)N[C@H]1CC[C@H](CCN2CCN(c3noc4cc(Cl)ccc34)CC2)CC1 [Example 43, N-trans-(4-{2-[4-(6-Chloro-benzo[d]isoxazol-3-yl)-piperazin-1-yl]-ethyl}-cyclohexyl)-2-trans-(4-hydroxy-cyclohexyl)-acetamide] | 8.49 | 7.90 | 5.53
9 | CC(C)(O)CC(=O)N[C@H]1CC[C@H](CCN2CCN(c3noc4cc(Cl)ccc34)CC2)CC1 [Example 44, N-trans-(4-{2-[4-(6-Chloro-benzo[d]isoxazol-3-yl)-piperazin-l-yl]-ethyl}-cyclohexyl)-3-hydroxy-3-methyl-butyramide] | 8.18 | 8.00 | 6.49
10 | C[C@H](O)CC(=O)N[C@H]1CC[C@H](CCN2CCN(c3noc4cc(Cl)ccc34)CC2)CC1 [Example 45, (S)-N-(4-{2-[4-(6-Chloro-benzo[d]isoxazol-3-yl)-piperazin-1-yl]-ethyl}-cyclohexyl)-3-hydroxy-butyramide] | 8.04 | 7.80 | 6.45
11 | O=C(N[C@H]1CC[C@H](CCN2CCN(c3noc4cc(Cl)ccc34)CC2)CC1)[C@H]1CCOC1 [Example 46, (S)-Tetrahydro-furan-3-carboxylic acid (4-{2-[4-(6-chloro-benzo[d]isoxazol-3-yl)-piperazin-1-yl]-ethyl}-cyclohexyl)-amide] | 7.96 | 7.68 | 6.31
12 | O=C(CC1COC1)N[C@H]1CC[C@H](CCN2CCN(c3noc4cc(Cl)ccc34)CC2)CC1 [Example 47, N-trans-(4-{2-[4-(6-Chloro-benzo[d]isoxazol-3-yl)-piperazin-1-yl]-ethyl}-cyclohexyl)-2-oxetan-3-yl-acetamide] | 8.18 | 8.09 | 6.62
13 | COC[C@H]1C[C@H](CC(=O)N[C@H]2CC[C@H](CCN3CCN(c4noc5cc(Cl)ccc45)CC3)CC2)C1 [Example 48, N-trans-(4-{2-[4-(6-Chloro-benzo[d]isoxazol-3-yl)-piperazin-1-yl]-ethyl}-cyclohexyl)-2-trans-(3-methoxymethyl-cyclobutyl)-acetamide] | 8.42 | 8.00 | 6.15

Other lines, results leading:

Row | pKi [1] | pKi [2] | pKi [3] | SMILES
14 | 8.07 | 7.69 | 5.99 | O=C(C[C@H]1CCCCO1)N[C@H]1CC[C@H](CCN2CCN(c3noc4cc(Cl)ccc34)CC2)CC1 [Example 49, N-trans-(4-{2-[4-(6-Chloro-benzo[d]isoxazol-3-yl)-piperazin-1-yl]-ethyl}-cyclohexyl)-2-(R)-tetrahydro-pyran-2-yl-acetamide]
15 | 8.32 | 7.63 | 5.94 | O=C(C[C@@H]1CCCCO1)N[C@H]1CC[C@H](CCN2CCN(c3noc4cc(Cl)ccc34)CC2)CC1 [Example 50, N-trans-(4-{2-[4-(6-Chloro-benzo[d]isoxazol-3-yl)-piperazin-1-yl]-ethyl}-cyclohexyl)-2-(S)-tetrahydro-pyran-2-yl-acetamide]
16 | 8.29 | 8.42 | 6.50 | O=C(CC1CC1)N[C@H]1CC[C@H](CCN2CCN(c3noc4cc(Cl)ccc34)CC2)CC1 [Example 52, N-trans-(4-{2-[4-(6-Chloro-benzo[d]isoxazol-3-yl)-piperazin-1-yl]-ethyl}-cyclohexyl)-2-cyclopropyl-acetamide]
17 | 8.29 | 8.56 | 6.76 | O=C(CC(F)(F)F)N[C@H]1CC[C@H](CCN2CCN(c3noc4cc(Cl)ccc34)CC2)CC1 [Example 53, N-trans-(4-{2-[4-(6-Chloro-benzo[d]isoxazol-3-yl)-piperazin-1-yl]-ethyl}-cyclohexyl)-3,3,3-trifluoro-propionamide]
18 | 8.08 | 7.30 | 5.41 | CO[C@H]1CC[C@H](C(=O)N[C@H]2CC[C@H](CCN3CCN(c4noc5cc(Cl)ccc45)CC3)CC2)CC1 [Example 54, 4-trans-Methoxy-cyclohexanecarboxylic acid N-trans-(4-{2-[4-(6-chloro-benzo[d]isoxazol-3-yl)-piperazin-1-yl]-ethyl}-cyclohexyl)-amide]
19 | 8.12 | 8.21 | 6.40 | COC(CC(=O)N[C@H]1CC[C@H](CCN2CCN(c3noc4cc(Cl)ccc34)CC2)CC1)OC [Example 55, N-trans-(4-{2-[4-(6-Chloro-benzo[d]isoxazol-3-yl)-piperazin-1-yl]-ethyl}-cyclohexyl)-3,3-dimethoxy-propionamide]

— US7858630B2, “D3 and 5-HT2A receptor modulators” (Hoffmann-La Roche Inc., priority 2008, dated 2010)
